Laboratory results taken from patent US10105357B2, “Indication of antibiotic drugs for preparation of cancer inhibition pharmaceutical composition” (LAUNX BIOMEDICAL CO., LTD., priority 2014, dated 2018).
Counter-ions that a name gives are not always drawn.

Test system: cancer cell lines
Assay: Cell viability analysis (WST-1) on cancer cell lines
Type: cell-based, human
Conditions: drug 10 μM, 72 hours; for inhibition effect on different cancer cell lines: WST-1, Table 3

Compound | inhibition effect on different cancer cell lines | Inhibitory effect on cancer cell line (WST-1, OD450 nm, Table 2: drugs which do not have significant inhibitory effect)
CCn1cc(C(=O)O)c(=O)c2cc(F)c(N3CCN(C)CC3)cc21 [Pefloxacin mesylate] | significant inhibition effect | –
N[C@@H]1CONC1=O [D-Cycloserine] | significant inhibition effect | –
CC1(C)[C@H](C(=O)[O-])N2C(=O)C[C@H]2S1(=O)=O.[Na+] [Sulbactam sodium (Unasyn), Sulbactam sodium] | significant inhibition effect | –
CC(C)CN(C[C@@H](O)[C@H](Cc1ccccc1)NC(=O)O[C@H]1CO[C@H]2OCC[C@H]21)S(=O)(=O)c1ccc(N)cc1.CCO [Darunavir Ethanolate (Prezista), Darunavir Ethanolate] | significant inhibition effect | –
CN(C/C=C/C#CC(C)(C)C)Cc1cccc2ccccc12 [Terbinafine hydrochloride (Lamisil), Terbinafine hydrochloride] | significant inhibition effect | –
Cc1nccn1CC1CCc2c(c3ccccc3n2C)C1=O (stereo not drawn) [Ondansetron hydrochloride (Zofran), Ondansetron hydrochloride] | significant inhibition effect | –
CCN[C@@H]1C[C@H](N)[C@@H](O[C@H]2OC(CN)=CC[C@H]2N)[C@H](O)[C@H]1O[C@H]1OC[C@](C)(O)[C@H](NC)[C@H]1O.CCN[C@@H]1C[C@H](N)[C@@H](O[C@H]2OC(CN)=CC[C@H]2N)[C@H](O)[C@H]1O[C@H]1OC[C@](C)(O)[C@H](NC)[C@H]1O.O=S(=O)(O)O.O=S(=O)(O)O.O=S(=O)(O)O.O=S(=O)(O)O.O=S(=O)(O)O [Netilmicin Sulfate] | significant inhibition effect | 0
NC(=O)c1cnccn1 [Pyrazinamide (Pyrazinoic acid amide), Pyrazinamide] | significant inhibition effect | –
